Here are results for 5 compounds from US11578041B2, “Crystals of hydroxychloroquine sulfate” (Genovate Biotechnology Co. Ltd., priority 2020, dated 2023).

For data set [1], the system named is Rat Pleurisy Macrophage Model. The following applies: compared with (R)-(-)-isomer; cited from earlier work.
The conditions of data set [2]: animal study; cited from earlier work.
Data set [3] can be described thus: Solubility test in 16 solvents by stepwise solvent addition. Type of data set: physicochemical.
Data set [4] is described as follows: Stability of crystal stirred in solvents, solid analysed by XRPD and chiral HPLC. Type of data set: physicochemical. The following applies: room temperature, 1 day. On the procedure:
Further, the stability of type A crystal was determined by stirring the crystal (10 mg) in each of nine solvent (0.5 mL) at room temperature for 1 day. For the nine solvents, see Table 6 below. The resulting solid was analyzed by XRPD and chiral HPLC containing a chiral column of DAICEL CHIRALCEL OD-H, 250×4.6 mm, 5 μm.

The nature of data set [5]: Hygroscopicity by dynamic vapor sorption analysis. Type of data set: physicochemical. The following applies: for RH at which moisture is adsorbed (adsorption curve) / moisture content: 25° C.; for RH at which moisture is adsorbed (adsorption curve): 5% RH increase per step from 0 to 95% RH; for moisture content: at 95% RH; for hygroscopicity compared with the amorphous form: overall conclusion. The method, then: Type A crystal, type B crystal, and an amorphous form of (S)-(+)-hydroxychloroquine sulfate were subjected to dynamic vapor sorption analysis to compare their hygroscopicity using a VTI-SA vapor sorption analyzer from TA Instruments (_New Castle, Del., USA). Each was exposed to a series of relative-humidity (“RH”)-change steps at 25° C., i.e, a 5% RH increase per step from 0 to 95% RH and then a 5% RH decrease per step from 95% to 5% RH.

A short description of data set [6]: Thermal stability by Variable Temperature PXRD under nitrogen. Type of data set: physicochemical. On the procedure: The stability of type A crystal was also determined by heating the crystal to 30° C., 80° C., 130° C., 160° C., 180° C., and 210° C. under nitrogen using the Variable Temperature PXRD technique. […] Only when the temperature reached 80° C., 160° C. and 210° C., it was converted to type B, C, and D crystals, respectively.

On to `CCN(CCO)CCC[C@H](C)Nc1ccnc2cc(Cl)ccc12.O=S(=O)(O)O` (single isomer, unassigned) [(S)-(+)-isomer], for which the “more efficacious than the (R)-(-)-isomer” value in data set [1] was 70%. In addition, the “accumulation in ocular tissues compared with the (R)-(-)-isomer” value in data set [2] is “much less”.

One may read the Solubility as how much of the substance goes into solution per volume. Low readings indicate a poorly soluble substance, high ones a readily soluble substance. On to “(±)-hydroxychloroquine [salt-free form of (±)-hydroxychloroquine]”, for which the Solubility is greater than 38 mg/mL in data set [3] (2-Methyl-tetrahydrofuran); greater than 38 mg/mL in data set [3] (Acetone); 6.7 to 20 mg/mL in data set [3] (Acetonitrile); greater than 40 mg/mL in data set [3] (Dichloromethane); greater than 40 mg/mL in data set [3] (Dioxane); greater than 42 mg/mL in data set [3] (Ethanol). The Solubility is 6.7 to 20 mg/mL in data set [3] (Ethyl acetate); greater than 38 mg/mL in data set [3] (Isopropanol); 6.7 to 20 mg/mL in data set [3] (Isopropyl acetate); greater than 40 mg/mL in data set [3] (Methanol); greater than 42 mg/mL in data set [3] (Methyl isobutyl ketone); less than 2.1 mg/mL in data set [3] (Methyl tert-butyl ether). Further, the Solubility in data set [3] (Tetrahydrofuran) is on record as greater than 38 mg/mL; in data set [3] (Toluene), less than 2.0 mg/mL; in data set [3] (Water), less than 1.9 mg/mL; in data set [3] (n-Heptane) it was less than 2.1 mg/mL.

As to `CCN(CCO)CCC[C@H](C)Nc1ccnc2cc(Cl)ccc12.O=S(=O)(O)O` [type A crystal, (S)-(+)-hydroxychloroquine sulfate], the Crystal change result in data set [4] (Acetone), in data set [4] (Acetonitrile), in data set [4] (Dichloromethane), in data set [4] (Ethanol), in data set [4] (Ethanol/water (9/1)) and in data set [4] (Ethyl acetate) was “Not found” throughout. The results for the Crystal change entry in data set [4] (Isopropyl acetate), in data set [4] (Methanol) and in data set [4] (Tetrahydrofuran) were “Not found”, “Clear solution” and “Not found”, respectively. The “ee of resulting solid” value in data set [4] (Acetone) is 95.4%; in data set [4] (Acetonitrile) it was 95.6%; in data set [4] (Dichloromethane) it was 95.8%; in data set [4] (Ethanol), 96.7%; in data set [4] (Ethanol/water (9/1), starting ee 96.2%) it was 99.2%; in data set [4] (Ethyl acetate) it was 88.8%. The “ee of resulting solid” value in data set [4] (Isopropyl acetate) is 95.5%; in data set [4] (Tetrahydrofuran), 95.3%. Moreover, the “stability in the test solvents (summary)” value in data set [4] (nine solvents) is “unexpectedly stable in all test solvents except in methanol”. In addition, the “RH at which moisture is adsorbed (adsorption curve)” value (“RH at which moisture is adsorbed” for short) in data set [5] was greater than 85 % RH. The moisture content in data set [5] came to 19%. The “hygroscopicity compared with the amorphous form” value in data set [5] is reported as “less hygroscopic”. The “stability at room temperature” value in data set [6] (Variable Temperature PXRD under nitrogen) is “highly stable”. Further, the “temperature at which converted to type B crystal” value in data set [6] (heating under nitrogen) came out at 80 °C. Also, the “temperature at which converted to type C crystal” value in data set [6] (heating under nitrogen) amounted to 160 °C. The “temperature at which converted to type D crystal” value in data set [6] (heating under nitrogen) was 210 °C.

Take `CCN(CCO)CCC[C@H](C)Nc1ccnc2cc(Cl)ccc12.O=S(=O)(O)O` [type B crystal, (S)-(+)-hydroxychloroquine sulfate]: in data set [5], the “RH at which moisture is adsorbed” value is on record as “higher than 60 % RH”, the moisture content came to 30% and the “hygroscopicity compared with the amorphous form” value is recorded as “less hygroscopic”.

Regarding `CCN(CCO)CCC[C@H](C)Nc1ccnc2cc(Cl)ccc12.O=S(=O)(O)O` [amorphous form, (S)-(+)-hydroxychloroquine sulfate, reference compound], in data set [5], the “RH at which moisture is adsorbed” value is on record as 25 % RH and the moisture content is reported as 51%. In data set [5] (compared with type A and type B crystals), the “susceptibility to environment (desorption curve)” value is recorded as “much more susceptible to an environment”.
